Like-named read-outs stand apart in the source and are kept apart here. *1 amine or outer side, *2 acyl side, *3 side chain or, on linkers, in order; H or OH if unused. Where a SMILES comes first, the peptide text is derived from it. The star is where a group is joined. Fluorescein(5-Mal) = O=C1OC2(c3ccc(O)cc3Oc3cc(O)ccc32)c2ccc(N3C(=O)CC(*)C3=O)cc21; X2 = N#C[C@@H]1CC(F)(F)CN1C(=O)CNC(=O)c1ccnc2ccc(OCCCN3CCN(*)CC3)cc12; Suc = O=C(CCC(=O)[*:2])[*:1]
What was measured:
murine FAP = molecular target: T1, murine FAP (Mus musculus, UniProt P97321); test: Affinity measurement to murine FAP by fluorescence polarization; assay type: binding; settings: binder 10 nM, read-out: KD to mFAP
T1 sequence (P97321 1-761): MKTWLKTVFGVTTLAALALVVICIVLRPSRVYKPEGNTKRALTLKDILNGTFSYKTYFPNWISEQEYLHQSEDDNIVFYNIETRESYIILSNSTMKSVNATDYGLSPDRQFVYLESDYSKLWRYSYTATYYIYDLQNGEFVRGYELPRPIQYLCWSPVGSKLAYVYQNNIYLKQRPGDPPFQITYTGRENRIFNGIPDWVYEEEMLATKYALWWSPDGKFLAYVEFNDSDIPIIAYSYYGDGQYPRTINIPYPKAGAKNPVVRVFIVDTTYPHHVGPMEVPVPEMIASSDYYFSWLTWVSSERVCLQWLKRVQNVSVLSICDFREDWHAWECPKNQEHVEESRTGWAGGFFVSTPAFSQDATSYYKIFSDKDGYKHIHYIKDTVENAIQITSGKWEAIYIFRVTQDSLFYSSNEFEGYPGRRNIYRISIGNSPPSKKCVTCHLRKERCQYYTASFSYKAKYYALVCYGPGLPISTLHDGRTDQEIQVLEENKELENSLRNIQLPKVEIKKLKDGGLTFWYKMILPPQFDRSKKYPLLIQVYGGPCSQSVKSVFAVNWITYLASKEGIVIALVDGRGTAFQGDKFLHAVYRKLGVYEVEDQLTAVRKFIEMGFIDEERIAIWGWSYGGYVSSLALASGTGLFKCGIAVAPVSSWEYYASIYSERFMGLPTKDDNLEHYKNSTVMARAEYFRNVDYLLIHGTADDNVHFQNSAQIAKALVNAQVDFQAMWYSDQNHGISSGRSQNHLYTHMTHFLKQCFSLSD
Experimental: (§1) Fluorescence polarization experiments were performed in 384-well plates (non-binding, ps, f-bottom, black, high volume, 30 μL final volume). Stock solutions of human FAP (4 μM) and murine FAP (5 μM) were serially diluted with buffer (50 mM Tris, 100 mM NaCl, 1 mM EDTA, pH=7.4), while the final concentration of the binders was kept constant at 10 nM. The fluorescence anisotropy was measured on a TECAN microtiter plate reader. Experiments were performed in triplicate and the mean anisotropy values fitted using Prism 7.

hFAP [1] = molecular target: T2, hFAP (Homo sapiens, UniProt Q12884); test: Affinity measurement to human FAP by fluorescence polarization; assay type: binding; settings: binder 10 nM, read-out: KD to hFAP
T2 construct: made in house; host or cells: CHO cells, transient gene expression, purified from supernatant
T2 sequence (Q12884 with tags, fused parts or gaps): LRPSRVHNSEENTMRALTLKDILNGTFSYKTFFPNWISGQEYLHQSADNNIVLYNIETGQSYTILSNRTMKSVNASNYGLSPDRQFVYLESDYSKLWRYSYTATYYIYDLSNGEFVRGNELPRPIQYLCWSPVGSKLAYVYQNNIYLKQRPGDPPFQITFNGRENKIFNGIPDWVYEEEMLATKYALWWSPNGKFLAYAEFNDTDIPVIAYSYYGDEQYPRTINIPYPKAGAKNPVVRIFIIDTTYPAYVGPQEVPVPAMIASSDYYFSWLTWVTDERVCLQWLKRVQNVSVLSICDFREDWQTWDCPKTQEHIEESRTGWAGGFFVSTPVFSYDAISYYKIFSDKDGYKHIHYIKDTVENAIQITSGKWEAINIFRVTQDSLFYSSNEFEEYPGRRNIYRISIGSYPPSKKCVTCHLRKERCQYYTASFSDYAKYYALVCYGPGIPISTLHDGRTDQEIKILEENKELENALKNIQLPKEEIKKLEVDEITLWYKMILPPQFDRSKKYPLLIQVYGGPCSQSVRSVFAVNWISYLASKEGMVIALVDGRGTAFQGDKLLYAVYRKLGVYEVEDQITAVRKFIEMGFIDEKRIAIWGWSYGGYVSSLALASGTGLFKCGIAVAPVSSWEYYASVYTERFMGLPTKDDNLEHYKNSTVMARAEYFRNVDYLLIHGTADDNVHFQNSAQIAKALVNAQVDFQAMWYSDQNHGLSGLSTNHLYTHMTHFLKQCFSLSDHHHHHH
Experimental: Fluorescence polarization measurements were performed in 384-well plates (non-binding, ps, f-bottom, black, high volume, 30 μL final volume). A stock solution of human FAP (4 μM) was serially diluted with buffer (50 mM Tris, 100 mM NaCl, 1 mM EDTA, pH=7.4), while the final concentration of the binders was kept constant at 10 nM. The measurements were carried out after incubating for 30 min at 37° C. in the dark by fluorescent polarization (FIG. 4).
as §1

hFAP [2] = molecular target: T2, hFAP; test: In vitro human FAP enzyme IC50 assay (Z-Gly-Pro-AMC substrate); assay type: biochemical; settings: for IC50: 20 nM human FAP, 20 μM substrate, read-out: IC50 hFAP inhibition; for hFAP inhibition (in words): FIG. 17, serial dilution from 10^−6 to 10^−11 M
Experimental: (§2) Enzymatic activity of human FAP on the Z-Gly-Pro-AMC substrate was measured at room temperature on a microtiter plate reader, monitoring the fluorescence at an excitation wavelength of 360 nm and an emission wavelength of 465 nm. The reaction mixture contained 20 μM substrate, 20 nM human FAP, assay buffer (50 mM Tris, 100 mM NaCl, 1 mM EDTA, pH=7.4) and inhibitor (ranging between 10^−6 and 10^−11 M) in a total volume of 30 μL.
Inhibitor stock solutions (200 mM) were prepared in DMSO. Immediately prior to the commencement of the experiment, the stocks were further diluted to 10^−6 M in the assay buffer, from which 1:2 serial dilutions were prepared. All measurements were done in triplicate.
The reaction mixture contained 20 μM substrate, 20 nM human FAP (constant), assay buffer (50 mM Tris, 100 mM NaCl, 1 mM EDTA, pH=7.4) and inhibitor (serial dilution from 10^−6 to 10^−11 M, 1:2) in a total volume of 20 μL.
as §2, with “human FAP (constant),” for “human FAP,”, “and tested compound (serial dilution from” for “and inhibitor (ranging between”, “10^−6 to” for “10^−6 and”, “10^−11 M, 1:2)” for “10^−11 M)”, “of 20” for “of 30”

hFAP [3] = molecular target: T2, hFAP; test: Dissociation rate measurement by fluorescence polarization; assay type: binding; settings: 2.0 nM binder, 1.0 μM human FAP, 37° C., 20 μM fluorescein-free competitor
Experimental: Fluorescence polarization measurements to determine the koff values were performed in 384-well plates (non-binding, ps, f-bottom, black, high volume, 30 μL final volume). The measurements were carried out after pre-incubation of 2.0 nM fluorescein-labelled binders with human FAP at a constant concentration of 1.0 μM at 37° C. in the dark. The dissociation of the fluorescein-labeled compound was induced by adding a large excess of the corresponding fluorescein-free binders (compound P3 obtained in Step 3 of Example 2 and compound H6 obtained in Step 6 of Comparative Example 1, respectively, each at 20 μM final concentration).

hFAP [4] = molecular target: T2, hFAP; test: Chromatographic co-elution (PD-10) of ligand-protein complexes, hFAP; assay type: binding; settings: PD-10 column, hFAP 2 μM
Experimental: A PD-10 column was pre-equilibrated with assay buffer (50 mM Tris, 100 mM NaCl, 1 mM EDTA, pH=7.4) prior to the loading of the complex. Human FAP (2 μM) and fluorescein-labeled binders (6 μM) were incubated for 30 min at 37° C. in the dark. The mixture was loaded and the column was flushed using the assay buffer. The flow through was collected in 96-well plates and the fluorescence was measured immediately on a TECAN microtiter plate reader, monitoring the fluorescence at an excitation wavelength of 485 nm and an emission wavelength of 535 nm. The protein quantities were estimated by measuring the absorbance at 280 nm using a Nanodrop 2000/2000c spectrophotometer.
A PD-10 column was pre-equilibrated with assay buffer (50 mM Tris, 100 mM NaCl, 1 mM EDTA, pH=7.4) prior to the loading of the complex. A mixture of different proteins (hFAP=2 μM, mFAP=5 μM) and conjugate 15 (100 nM) were incubated and loaded on the column. The mixture was flushed using the assay buffer. The flow through was collected in 96-well plates and the fluorescence intensity was measured immediately on a TECAN microtiter plate reader, monitoring the fluorescence at an excitation wavelength of 485 nm and an emission wavelength of 535 nm. The concentration of the proteins was estimated by measuring the absorbance at 280 nm using a Nanodrop 2000/2000c spectrophotometer.

[5] = FIG. 5, 30 min preincubation at 37° C.

N#C[C@@H]1CC(F)(F)CN1C(=O)CNC(=O)c1ccnc2ccc(OCCCN3CCN(C(=O)CCC(=O)N[C@@H](CC(=O)O)C(=O)N[C@@H](CCCCN)C(=O)N[C@@H](CC(=O)O)C(=O)N[C@@H](CSC4CC(=O)N(c5ccc6c(c5)C(=O)OC65c6ccc(O)cc6Oc6cc(O)ccc65)C4=O)C(=O)O)CC3)cc12 (stereo partly shown) [conjugate 25, reference compound] ({X2-Suc}-DKDC(Fluorescein(5-Mal))-OH)
Kd (murine FAP): 30.9 nM
Kd (hFAP [1]): 1.02 nM

N#C[C@@H]1CC(F)(F)CN1C(=O)CNC(=O)c1ccnc2c(N)cccc12 [Conjugate P3, (S)-8-amino-N-(2-(2-cyano-4,4-difluoropyrrolidin-1-yl)-2-oxoethyl)quinoline-4-carboxamide]
IC50 (hFAP [2]; [5]): 20.2 nM

N#C[C@@H]1CC(F)(F)CN1C(=O)CNC(=O)c1ccnc2ccc(OCCCN3CCNCC3)cc12 [Conjugate H6, (S)—N-(2-(2-cyano-4,4-difluoropyrrolidin-1-yl)-2-oxoethyl)-6-(3-(piperazin-1-yl)propoxy)quinoline-4-carboxamide]
IC50 (hFAP [2]; [5]): 24.6 nM

N#C[C@@H]1CC(F)(F)CN1C(=O)CNC(=O)c1ccnc2ccc(OCCCN3CCN(C(=O)c4ccc5c(c4)C(=O)OC54c5ccc(O)cc5Oc5cc(O)ccc54)CC3)cc12 [Haberkorn-fluo, (S)—N-(2-(2-cyano-4,4-difluoropyrrolidin-1-yl)-2-oxoethyl)-6-(3-(4-(3′,6′-dihydroxy-3-oxo-3H-spiro[isobenzofuran-1,9′-xanthene]-5-carbonyl)piperazin-1-yl)propoxy)quinoline-4-carboxamide, reference compound]
dissociation from hFAP, regression coefficient (hFAP [3]): −0.07511
Kd (hFAP [1]): 0.89 nM
complex formation with hFAP in PD-10 co-elution (hFAP [4]): stable complex is formed

N#C[C@@H]1CC(F)(F)CN1C(=O)CNC(=O)c1ccnc2c(N)cccc12 [ESV6 ligand]
IC50 (hFAP [2]; [5]): 20.2 nM

N#C[C@@H]1CC(F)(F)CN1C(=O)CNC(=O)c1ccnc2c(NC(=O)CCC(=O)O)cccc12 [Conjugate P4, (S)-4-((4-((2-(2-cyano-4,4-difluoropyrrolidin-1-yl)-2-oxoethyl)carbamoyl)quinolin-8-yl)amino)-4-oxobutanoic acid]
IC50 (hFAP [2]; FIG. 9, total volume 20 μL): 16.8 nM

N#C[C@@H]1CC(F)(F)CN1C(=O)CNC(=O)c1ccnc2cc(Nc3ccccc3)ccc12 [compound 24, (S)-N-(2-(2-cyano-4,4-difluoropyrrolidin-1-yl)-2-oxoethyl)-7-(phenylamino)quinoline-4-carboxamide]
IC50 (hFAP [2]; FIG. 9, total volume 20 μL): 33.5 nM

N#C[C@@H]1CC(F)(F)CN1C(=O)CNC(=O)c1ccnc2ccc(OCCCN3CCNCC3)cc12 [Haberkorn ligand]
IC50 (hFAP [2]; [5]): 24.6 nM

N#C[C@@H]1CC(F)(F)CN1C(=O)CNC(=O)c1ccnc2c(NC(=O)CCC(=O)NCCOCCOCCNC(=S)Nc3ccc4c(c3)C(=O)OC43c4ccc(O)cc4Oc4cc(O)ccc43)cccc12 [ESV6-fluo, (S)—N1-(4-((2-(2-cyano-4,4-difluoropyrrolidin-1-yl)-2-oxoethyl)carbamoyl)quinolin-8-yl)-N4-(2-(2-(2-(3-(3′,6′-dihydroxy-3-oxo-3H-spiro[isobenzofuran-1,9′-xanthen]-5-yl)thioureido)ethoxy)ethoxy)ethyl)succinamide]
dissociation from hFAP, regression coefficient (hFAP [3]): −0.09356
Kd (hFAP [1]): 0.78 nM
complex formation with hFAP in PD-10 co-elution (hFAP [4]): stable complex is formed

COc1ccc2nccc(C(=O)NCC(=O)N3CCC[C@H]3C#N)c2c1 [Conjugate 28, (S)-N-(2-(2-cyanopyrrolidin-1-yl)-2-oxoethyl)-6-methoxyquinoline-4-carboxamide]
hFAP inhibition (in words) (hFAP [2]): lower FAP inhibition property compared with Example 2, P4

C[C@H](NC(=O)c1ccnc(CNC(=O)CCC(=O)O)c1)C(=O)N1CC(F)(F)C[C@H]1C#N [Conjugate 29, 4-(((4-(((S)-1-((S)-2-cyano-4,4-difluoropyrrolidin-1-yl)-1-oxopropan-2-yl)carbamoyl)pyridin-2-yl)methyl)amino)-4-oxobutanoic acid]
hFAP inhibition (in words) (hFAP [2]): does not inhibit FAP proteolytic activity at the concentrations tested in the assay
